# Laboratory results as given in ChEMBL document CHEMBL3044945, “Synthesis of 1,3,5-trisubstituted pyrazoline nucleus containing compounds and screening for antimicrobial activity” (2012).
# How the values were obtained:
# Assay type in all cases: functional
# Staphylococcus aureus [1] = experiment: Antibacterial activity against Staphylococcus aureus MTCC 1430 at 500 ug/ml after 48 hr by cup-plate method; details: MTCC 1430, 48 h, read-out: DIZ
# Pseudomonas fluorescens [2] = experiment: Antibacterial activity against Pseudomonas fluorescens MTCC 2421 at 100 ug/ml after 48 hr by cup-plate method; details: MTCC 2421, 48 h, read-out: DIZ
# Pseudomonas fluorescens [3] = experiment: Antibacterial activity against Pseudomonas fluorescens MTCC 2421 at 250 ug/ml after 48 hr by cup-plate method; details: MTCC 2421, 48 h, read-out: DIZ
# Micrococcus luteus [4] = experiment: Antibacterial activity against Micrococcus luteus MTCC 1538 at 1250 ug/ml after 48 hr by cup-plate method; details: MTCC 1538, 48 h, read-out: DIZ
# Pseudomonas aeruginosa [5] = experiment: Antibacterial activity against Pseudomonas aeruginosa MTCC 424 at 1000 ug/ml after 48 hr by cup-plate method; details: MTCC 424, 48 h, read-out: DIZ
# Bacillus pumilus [6] = experiment: Antibacterial activity against Bacillus pumilus MTCC 1456 at 250 ug/ml after 48 hr by cup-plate method; details: MTCC 1456, 48 h, read-out: DIZ
# Aspergillus niger [7] = experiment: Antifungal activity against Aspergillus niger MTCC 2546 at 250 ug/ml after 48 hr by cup-plate method; details: MTCC 2546, 48 h, read-out: DIZ
# Penicillium chrysogenum [8] = experiment: Antifungal activity against Penicillium chrysogenum MTCC 161 at 750 ug/ml after 48 hr by cup-plate method; details: MTCC 161, 48 h, read-out: DIZ
# Bacillus pumilus [9] = experiment: Antibacterial activity against Bacillus pumilus MTCC 1456 at 1000 ug/ml after 48 hr by cup-plate method; details: MTCC 1456, 48 h, read-out: DIZ
# Escherichia coli [10] = experiment: Antibacterial activity against Escherichia coli MTCC 1573 at 500 ug/ml after 48 hr by cup-plate method; details: MTCC 1573, 48 h, read-out: DIZ
# Escherichia coli [11] = experiment: Antibacterial activity against Escherichia coli MTCC 1573 at 100 ug/ml after 48 hr by cup-plate method; details: MTCC 1573, 48 h, read-out: DIZ
# Bacillus subtilis [12] = experiment: Antibacterial activity against Bacillus subtilis MTCC 441 at 500 ug/ml after 48 hr by cup-plate method; details: MTCC 441, 48 h, read-out: DIZ
# Aspergillus niger [13] = experiment: Antifungal activity against Aspergillus niger MTCC 2546 at 1250 ug/ml after 48 hr by cup-plate method; details: MTCC 2546, 48 h, read-out: DIZ
# Bacillus pumilus [14] = experiment: Antibacterial activity against Bacillus pumilus MTCC 1456 after 24 to 48 hr by tube dilution method
# Micrococcus luteus [15] = experiment: Antibacterial activity against Micrococcus luteus MTCC 1538 after 24 to 48 hr by tube dilution method
# Bacillus subtilis [16] = experiment: Antibacterial activity against Bacillus subtilis MTCC 441 at 1250 ug/ml after 48 hr by cup-plate method; details: MTCC 441, 48 h, read-out: DIZ
# Aspergillus niger [17] = experiment: Antifungal activity against Aspergillus niger MTCC 2546 at 500 ug/ml after 48 hr by cup-plate method; details: MTCC 2546, 48 h, read-out: DIZ
# Pseudomonas aeruginosa [18] = experiment: Antibacterial activity against Pseudomonas aeruginosa MTCC 424 at 500 ug/ml after 48 hr by cup-plate method; details: MTCC 424, 48 h, read-out: DIZ
# Bacillus subtilis [19] = experiment: Antibacterial activity against Bacillus subtilis MTCC 441 at 1000 ug/ml after 48 hr by cup-plate method; details: MTCC 441, 48 h, read-out: DIZ
# Staphylococcus aureus [20] = experiment: Antibacterial activity against Staphylococcus aureus MTCC 1430 after 24 to 48 hr by tube dilution method
# Bacillus subtilis [21] = experiment: Antibacterial activity against Bacillus subtilis MTCC 441 at 250 ug/ml after 48 hr by cup-plate method; details: MTCC 441, 48 h, read-out: DIZ
# Pseudomonas aeruginosa [22] = experiment: Antibacterial activity against Pseudomonas aeruginosa MTCC 424 at 250 ug/ml after 48 hr by cup-plate method; details: MTCC 424, 48 h, read-out: DIZ
# Pseudomonas fluorescens [23] = experiment: Antibacterial activity against Pseudomonas fluorescens MTCC 2421 at 1000 ug/ml after 48 hr by cup-plate method; details: MTCC 2421, 48 h, read-out: DIZ
# Escherichia coli [24] = experiment: Antibacterial activity against Escherichia coli MTCC 1573 at 1000 ug/ml after 48 hr by cup-plate method; details: MTCC 1573, 48 h, read-out: DIZ
# Bacillus pumilus [25] = experiment: Antibacterial activity against Bacillus pumilus MTCC 1456 at 750 ug/ml after 48 hr by cup-plate method; details: MTCC 1456, 48 h, read-out: DIZ
# Penicillium chrysogenum [26] = experiment: Antifungal activity against Penicillium chrysogenum MTCC 161 at 1000 ug/ml after 48 hr by cup-plate method; details: MTCC 161, 48 h, read-out: DIZ
# Pseudomonas aeruginosa [27] = experiment: Antibacterial activity against Pseudomonas aeruginosa MTCC 424 after 24 to 48 hr by tube dilution method
# Pseudomonas fluorescens [28] = experiment: Antibacterial activity against Pseudomonas fluorescens MTCC 2421 at 750 ug/ml after 48 hr by cup-plate method; details: MTCC 2421, 48 h, read-out: DIZ
smiles,measurement,setting,value
NC(=O)N1N=C(c2cccc3ccccc23)CC1c1ccc([N+](=O)[O-])cc1 (stereo not drawn),zone of inhibition at 500 µg/mL,Staphylococcus aureus [1],10 mm
same,zone of inhibition at 100 µg/mL,Pseudomonas fluorescens [2],8 mm
same,zone of inhibition at 250 µg/mL,Pseudomonas fluorescens [3],9 mm
same,zone of inhibition at 1250 µg/mL,Micrococcus luteus [4],11 mm
same,zone of inhibition at 1000 µg/mL,Pseudomonas aeruginosa [5],13 mm
same,zone of inhibition at 250 µg/mL,Bacillus pumilus [6],8 mm
same,zone of inhibition at 250 µg/mL,Aspergillus niger [7],11 mm
same,zone of inhibition at 750 µg/mL,Penicillium chrysogenum [8],11 mm
same,zone of inhibition at 1000 µg/mL,Bacillus pumilus [9],11 mm
same,zone of inhibition at 500 µg/mL,Escherichia coli [10],11 mm
same,zone of inhibition at 100 µg/mL,Escherichia coli [11],9 mm
same,zone of inhibition at 500 µg/mL,Bacillus subtilis [12],13 mm
same,zone of inhibition at 1250 µg/mL,Aspergillus niger [13],19 mm
same,MIC,Bacillus pumilus [14],50 µg/mL
same,MIC,Micrococcus luteus [15],30 µg/mL
same,zone of inhibition at 1250 µg/mL,Bacillus subtilis [16],16 mm
same,zone of inhibition at 500 µg/mL,Aspergillus niger [17],13 mm
same,zone of inhibition at 500 µg/mL,Pseudomonas aeruginosa [18],11 mm
same,zone of inhibition at 1000 µg/mL,Bacillus subtilis [19],15 mm
same,MIC,Staphylococcus aureus [20],50 µg/mL
same,zone of inhibition at 250 µg/mL,Bacillus subtilis [21],12 mm
same,zone of inhibition at 250 µg/mL,Pseudomonas aeruginosa [22],10 mm
same,zone of inhibition at 1000 µg/mL,Pseudomonas fluorescens [23],12 mm
same,zone of inhibition at 1000 µg/mL,Escherichia coli [24],13 mm
same,zone of inhibition at 750 µg/mL,Bacillus pumilus [25],10 mm
same,zone of inhibition at 1000 µg/mL,Penicillium chrysogenum [26],12 mm
same,MIC,Pseudomonas aeruginosa [27],200 µg/mL
same,zone of inhibition at 750 µg/mL,Pseudomonas fluorescens [28],11 mm
